What all share (format): biochemical
For assay [1], the target named is T1, human Yes1 enzyme (Homo sapiens, UniProt P07947).
T1 construct: made in house
In words: Yes1 enzyme inhibitory activity (time-resolved fluorometry, biotinylated peptide phosphorylation). As to conditions: read-out: YES_IC50. The gist of the method: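 Inhibition was expressed against a compound-free control to give IC50, using TR-FRET read-out (Eu-cryptate anti-pTyr antibody, streptavidin-XL665).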

The target in assay [2] is T2, human Src enzyme (Homo sapiens, UniProt P12931).
T2 construct: purchased Carna Biosciences, Inc. 08-173
Briefly: Src enzyme inhibitory activity (time-resolved fluorometry, biotinylated peptide phosphorylation). As to conditions: read-out: SRC_IC50. The gist of the method: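 Compounds were tested for blocking tyrosine phosphorylation of a biotinylated peptide substrate by recombinant human Src. Phosphorylated product was quantified by time-resolved fluorometry using europium cryptate and XL665 conjugates, and IC50 was calculated against the compound-free control.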

Assay [3] has as its target T3, human Lck enzyme (Homo sapiens, UniProt P06239).
T3 construct: purchased Carna Biosciences, Inc. 08-170
Briefly: Lck enzyme inhibitory activity (time-resolved fluorometry, biotinylated peptide phosphorylation). As to conditions: read-out: LCK_IC50. The gist of the method: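 Readout pairs a europium cryptate-labelled anti-phosphotyrosine antibody with XL665-streptavidin, measured by time-resolved fluorescence. IC50 derived from percent inhibition against untreated controls.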

Setting [4] is: biotinylated peptide phosphorylation.

Structures are written as SMILES. Like-named read-outs stand apart in the source and are kept apart here.

T1 sequence (P07947 whole entry): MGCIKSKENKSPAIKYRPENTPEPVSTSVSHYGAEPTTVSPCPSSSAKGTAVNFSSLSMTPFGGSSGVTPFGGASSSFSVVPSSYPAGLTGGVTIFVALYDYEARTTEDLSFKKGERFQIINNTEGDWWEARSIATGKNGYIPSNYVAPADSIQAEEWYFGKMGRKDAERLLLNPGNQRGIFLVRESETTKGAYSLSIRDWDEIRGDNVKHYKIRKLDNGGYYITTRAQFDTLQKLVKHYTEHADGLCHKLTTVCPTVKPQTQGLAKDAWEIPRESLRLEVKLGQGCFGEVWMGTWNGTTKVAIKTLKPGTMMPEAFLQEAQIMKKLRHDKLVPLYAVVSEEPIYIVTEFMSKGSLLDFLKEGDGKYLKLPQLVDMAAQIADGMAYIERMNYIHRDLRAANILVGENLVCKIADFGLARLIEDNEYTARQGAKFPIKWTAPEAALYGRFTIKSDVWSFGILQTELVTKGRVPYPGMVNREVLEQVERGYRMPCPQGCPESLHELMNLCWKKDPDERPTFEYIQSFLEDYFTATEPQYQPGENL
T2 sequence (P12931 whole entry): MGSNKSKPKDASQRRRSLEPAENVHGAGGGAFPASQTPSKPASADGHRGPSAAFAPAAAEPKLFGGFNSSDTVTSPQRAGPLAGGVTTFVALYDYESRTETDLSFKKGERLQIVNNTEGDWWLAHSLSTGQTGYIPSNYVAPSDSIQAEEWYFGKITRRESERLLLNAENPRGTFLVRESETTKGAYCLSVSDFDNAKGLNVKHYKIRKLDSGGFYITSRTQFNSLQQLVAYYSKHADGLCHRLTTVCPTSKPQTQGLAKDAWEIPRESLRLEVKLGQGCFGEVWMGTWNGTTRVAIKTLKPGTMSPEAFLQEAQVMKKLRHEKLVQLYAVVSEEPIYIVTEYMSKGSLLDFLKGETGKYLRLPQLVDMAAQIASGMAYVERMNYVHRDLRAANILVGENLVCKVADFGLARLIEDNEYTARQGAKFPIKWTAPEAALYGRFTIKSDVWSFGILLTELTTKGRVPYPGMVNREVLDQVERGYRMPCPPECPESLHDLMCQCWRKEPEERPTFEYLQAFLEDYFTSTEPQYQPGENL
T3 sequence (P06239 whole entry): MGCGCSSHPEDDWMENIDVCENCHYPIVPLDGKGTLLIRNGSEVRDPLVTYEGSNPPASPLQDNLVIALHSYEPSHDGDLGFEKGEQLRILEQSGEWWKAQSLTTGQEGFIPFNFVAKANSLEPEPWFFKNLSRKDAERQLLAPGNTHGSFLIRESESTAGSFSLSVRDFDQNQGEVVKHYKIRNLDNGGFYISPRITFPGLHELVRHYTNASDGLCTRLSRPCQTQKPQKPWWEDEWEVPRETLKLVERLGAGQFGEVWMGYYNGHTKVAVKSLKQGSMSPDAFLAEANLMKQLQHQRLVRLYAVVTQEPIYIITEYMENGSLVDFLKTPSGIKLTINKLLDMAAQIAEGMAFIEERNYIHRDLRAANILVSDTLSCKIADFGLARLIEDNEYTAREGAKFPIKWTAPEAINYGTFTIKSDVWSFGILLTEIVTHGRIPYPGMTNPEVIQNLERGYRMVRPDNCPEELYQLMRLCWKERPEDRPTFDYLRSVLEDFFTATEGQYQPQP

As for `Cc1cc(Oc2c(F)cccc2F)ncc1-n1ncc(C(=O)c2cc3cc(F)c(NS(=O)(=O)c4cccc(Cl)c4)cc3[nH]2)c1N` [Example 5-1-559, N-[2-[5-amino-1-[6-(2,6-difluorophenoxy)-4-methylpyridin-3-yl]pyrazole-4-carbonyl]-5-fluoro-1H-indol-6-yl]-3-chlorobenzenesulfonamide], the values for the IC50 in assay [1] (setting [4]), in assay [2] (setting [4]) and in assay [3] (setting [4]) were 17 nM, 2400 nM and 810 nM, respectively.

For the molecule `Cc1cc(Oc2c(F)cccc2F)ncc1-n1ncc(C(=O)c2cc3cc(OC(F)F)c(NS(C)(=O)=O)cc3[nH]2)c1N` [Example 4-24-011, N-[2-[5-amino-1-[6-(2,6-difluorophenoxy)-4-methylpyridin-3-yl]pyrazole-4-carbonyl]-5-(difluoromethoxy)-1H-indol-6-yl]methanesulfonamide], the IC50 in assay [1] (setting [4]) came out at 2.3 nM; in assay [2] (setting [4]), 64 nM; in assay [3] (setting [4]) it was 13 nM.

With `Cc1cc(Oc2c(F)cccc2F)ncc1-n1ncc(C(=O)c2cc3cc(OCC(F)F)c(NS(=O)(=O)c4cncc(F)c4)cc3[nH]2)c1N` [Example 5-1-576, N-[2-[5-amino-1-[6-(2,6-difluorophenoxy)-4-methylpyridin-3-yl]pyrazole-4-carbonyl]-5-(2,2-difluoroethoxy)-1H-indol-6-yl]-5-fluoropyridine-3-sulfonamide], the IC50 was 3.1 nM in assay [1] (setting [4]), 470 nM in assay [2] (setting [4]) and 14 nM in assay [3] (setting [4]).

In the case of `Cc1cc(Oc2ccccc2F)ncc1-n1ncc(C(=O)c2cc3cc(OC(F)F)c(N4CCN(S(C)(=O)=O)CC4)cc3[nH]2)c1N` [Example 4-23-004, [5-amino-1-[6-(2-fluorophenoxy)-4-methylpyridin-3-yl]pyrazol-4-yl]-[5-(difluoromethoxy)-6-(4-methylsulfonylpiperazin-1-yl)-1H-indol-2-yl]methanone], the IC50 worked out at 5.5 nM in assay [1] (setting [4]), 48 nM in assay [2] (setting [4]) and 18 nM in assay [3] (setting [4]).

As for `COc1cc2cc(C(=O)c3cnn(-c4cnc(Oc5c(F)cccc5F)cc4C)c3N)[nH]c2cc1NS(=O)(=O)C1CC1` [Example 4-24-035, N-[2-[5-amino-1-[6-(2,6-difluorophenoxy)-4-methylpyridin-3-yl]pyrazole-4-carbonyl]-5-methoxy-1H-indol-6-yl]cyclopropanesulfonamide], the IC50 turned out to be 1.2 nM in assay [1] (setting [4]), 47 nM in assay [2] (setting [4]) and 5 nM in assay [3] (setting [4]).

As for `Cc1cc(Oc2c(F)cccc2F)ncc1-n1ncc(C(=O)c2cc3cc(OC(F)F)c(NC4CN(S(C)(=O)=O)C4)cc3[nH]2)c1N` [Example 5-1-079, [5-amino-1-[6-(2,6-difluorophenoxy)-4-methylpyridin-3-yl]pyrazol-4-yl]-[5-(difluoromethoxy)-6-[(1-methylsulfonylazetidin-3-yl)amino]-1H-indol-2-yl]methanone], the figures for the IC50 in assay [1], in assay [2] and in assay [3] were 1 nM, 20 nM and 3.8 nM, respectively.

Turning to `Cc1cc(Oc2c(F)cccc2F)ncc1-n1ncc(C(=O)c2cc3cc(OC4CCN(C(C)C)CC4)c(-c4cnn(C)c4)cc3[nH]2)c1N` [Example 5-1-249, [5-amino-1-[6-(2,6-difluorophenoxy)-4-methylpyridin-3-yl]pyrazol-4-yl]-[6-(1-methylpyrazol-4-yl)-5-(1-propan-2-ylpiperidin-4-yl)oxy-1H-indol-2-yl]methanone], the IC50 in assay [1] amounted to 0.77 nM; in assay [2] it was 7.4 nM; in assay [3], 3.7 nM.

In the case of `CC(C)N1CCC(c2cc3[nH]c(C(=O)c4cnn(-c5ccc(Oc6ccccc6Cl)cc5)c4N)cc3cc2F)CC1` [Example 5-1-015, [5-amino-1-[4-(2-chlorophenoxy)phenyl]pyrazol-4-yl]-[5-fluoro-6-(1-propan-2-ylpiperidin-4-yl)-1H-indol-2-yl]methanone], the IC50 was 1.5 nM in assay [1], 23 nM in assay [2] and 2.2 nM in assay [3].

Consider `Nc1c(C(=O)c2cc3cc(F)c(NS(=O)(=O)CCCF)cc3[nH]2)cnn1-c1ccc(Oc2ncccc2F)cc1F` [Example 5-1-035, N-[2-[5-amino-1-[2-fluoro-4-(3-fluoropyridin-2-yl)oxyphenyl]pyrazole-4-carbonyl]-5-fluoro-1H-indol-6-yl]-3-fluoropropane-1-sulfonamide], for which the figures for the IC50 in assay [1], in assay [2] and in assay [3] were 0.68 nM, 85 nM and 35 nM, respectively.

For the molecule `Cc1cc(Oc2ccccc2Cl)ncc1-n1ncc(C(=O)c2cc3cc(NS(C)(=O)=O)c(F)cc3[nH]2)c1N` [Example 5-1-050, N-[2-[5-amino-1-[6-(2-chlorophenoxy)-4-methylpyridin-3-yl]pyrazole-4-carbonyl]-6-fluoro-1H-indol-5-yl]methanesulfonamide], the figures for the IC50 in assay [1], in assay [2] and in assay [3] were 0.77 nM, 23 nM and 1.8 nM, respectively.

Regarding `Cc1cc(Oc2ccccc2F)ccc1-n1ncc(C(=O)c2cc3cc(OCC(F)F)c(N4C(=O)OC[C@@H]4Cc4ccccc4)cc3[nH]2)c1N` [Example 5-1-245, (4S)-3-[2-[5-amino-1-[4-(2-fluorophenoxy)-2-methylphenyl]pyrazole-4-carbonyl]-5-(2,2-difluoroethoxy)-1H-indol-6-yl]-4-benzyl-1,3-oxazolidin-2-one], the figures for the IC50 in assay [1], in assay [2] and in assay [3] were 7.1 nM, 23 nM and 57 nM, respectively.

Take `Cc1cc2cc(C(=O)c3cnn(-c4cnc(Oc5c(F)cccc5F)cc4C)c3N)[nH]c2cc1N1C(=O)N[C@@H](C)C1=O` [Example 5-1-443, (5S)-3-[2-[5-amino-1-[6-(2,6-difluorophenoxy)-4-methylpyridin-3-yl]pyrazole-4-carbonyl]-5-methyl-1H-indol-6-yl]-5-methylimidazolidine-2,4-dione]: the IC50 in assay [1] (setting [4]) is 1.4 nM; in assay [2] (setting [4]) it was 25 nM; in assay [3] (setting [4]), 4.9 nM.

In the case of `Cc1cc(Oc2ccccc2F)ncc1-n1ncc(C(=O)c2cc3cc(OC(F)F)c(N4CCOCC4)cc3[nH]2)c1N` [Example 4-25-022, [5-amino-1-[6-(2-fluorophenoxy)-4-methylpyridin-3-yl]pyrazol-4-yl]-[5-(difluoromethoxy)-6-morpholin-4-yl-1H-indol-2-yl]methanone], the IC50 in assay [1] (setting [4]) is 5.9 nM; in assay [2] (setting [4]), 59 nM; in assay [3] (setting [4]) it was 10 nM.

Turning to `Cc1cc(Oc2c(F)cccc2F)ncc1-n1ncc(C(=O)c2cc3cc(OC4CCN(C5CCC5)CC4)c(Br)cc3[nH]2)c1N` [Example 5-1-221, [5-amino-1-[6-(2,6-difluorophenoxy)-4-methylpyridin-3-yl]pyrazol-4-yl]-[6-bromo-5-(1-cyclobutylpiperidin-4-yl)oxy-1H-indol-2-yl] methanone], the IC50 in assay [1] was 0.66 nM; in assay [2], 6.4 nM; in assay [3], 7.5 nM.

Take `Cc1cc(Oc2ccccc2F)ncc1-n1ncc(C(=O)c2cc3cc(F)c(N4C(=O)NC(C)(C)C4=O)cc3[nH]2)c1N` [Example 5-1-379, 3-[2-[5-amino-1-[6-(2-fluorophenoxy)-4-methylpyridin-3-yl]pyrazole-4-carbonyl]-5-fluoro-1H-indol-6-yl]-5,5-dimethylimidazolidine-2,4-dione]: the IC50 is 4.5 nM in assay [1], 61 nM in assay [2] and 11 nM in assay [3].

Take `Cc1cc(Oc2ccccc2F)ccc1-n1ncc(C(=O)c2cc3cc(OC(F)F)c(NS(=O)(=O)CCCF)cc3[nH]2)c1N` [Example 4-24-003, N-[2-[5-amino-1-[4-(2-fluorophenoxy)-2-methylphenyl]pyrazole-4-carbonyl]-5-(difluoromethoxy)-1H-indol-6-yl]-3-fluoropropane-1-sulfonamide]: the results for the IC50 in assay [1] (setting [4]), in assay [2] (setting [4]) and in assay [3] (setting [4]) were 2.7 nM, 55 nM and 25 nM, respectively.

As to `Cc1cc(Oc2c(F)cccc2F)ncc1-n1ncc(C(=O)c2cc3cc(F)c(-n4c(C)cc(=O)[nH]c4=O)cc3[nH]2)c1N` [Example 5-1-101, 1-[2-[5-amino-1-[6-(2,6-difluorophenoxy)-4-methylpyridin-3-yl]pyrazole-4-carbonyl]-5-fluoro-1H-indol-6-yl]-6-methylpyrimidine-2,4-dione], the IC50 in assay [1] was 1.9 nM; in assay [2] it was 25 nM; in assay [3], 1.1 nM.

For `Cc1cc(Oc2ccccc2F)ccc1-n1ncc(C(=O)c2cc3cc(F)c(NC4CCN(S(C)(=O)=O)CC4)cc3[nH]2)c1N` [Example 5-1-135, [5-amino-1-[4-(2-fluorophenoxy)-2-methylphenyl]pyrazol-4-yl]-[5-fluoro-6-[(1-methylsulfonylpiperidin-4-yl)amino]-1H-indol-2-yl]methanone], the IC50 is 0.84 nM in assay [1], 12 nM in assay [2] and 5.3 nM in assay [3].

As to `Cc1cc(Oc2c(F)cccc2F)ncc1-n1ncc(C(=O)c2cc3cc(OC(F)F)c(NS(=O)(=O)N4CCOCC4)cc3[nH]2)c1N` [Example 4-22-003, N-[2-[5-amino-1-[6-(2,6-difluorophenoxy)-4-methylpyridin-3-yl]pyrazole-4-carbonyl]-5-(difluoromethoxy)-1H-indol-6-yl]morpholine-4-sulfonamide], the IC50 in assay [1] (setting [4]) was found to be 2.9 nM; in assay [2] (setting [4]), 170 nM; in assay [3] (setting [4]), 62 nM.

Take `Cc1cc(-n2ncc(C(=O)c3cc4cc(OCC(F)F)c(C5CCN(S(C)(=O)=O)CC5)cc4[nH]3)c2N)ccc1Oc1ccccc1F` [Example 5-1-217, [5-amino-1-[4-(2-fluorophenoxy)-3-methylphenyl]pyrazol-4-yl]-[5-(2,2-difluoroethoxy)-6-(1-methylsulfonylpiperidin-4-yl)-1H-indol-2-yl]methanone]: the results for the IC50 in assay [1], in assay [2] and in assay [3] were 1.4 nM, 150 nM and 48 nM, respectively.

The record behind these values is US10479780B2, “Aminopyrazole derivatives” (Chugai Seiyaku Kabushiki Kaisha, priority 2015, dated 2019).
